Columns and labels:
Format in all cases: in vivo
[1] = test system: pulmonary fibrosis induced by administration of Bleomycin (BLM); experiment: Histological examination (H&E and Masson-trichrome staining, Image J) of lung tissue in pulmonary fibrosis-induced animals; conditions: BLM-treated C57BL/6 mice; oral, every day; SFN 50 μg/kg, Met 25 mg/kg, singly or together; lung tissue at 28 days; vs BLM alone
Procedure: In detail, C57BL/6 mice were administered with combination of BLM, SFN and metformin (Met) which is one of BG agents, and control groups and experimental groups were prepared: a control group that was orally administered with sterile physiological saline (SA) and orally administered with distilled water; an experimental group (BLM) that was administered with BLM and orally administered with distilled water; an experimental group (BLM+SFN) that was administered with BLM and orally administered with 50 μg/kg of SFN; an experimental group (BLM+MET) that was administered with BLM and orally administered with […] of Met; and an experimental group (BLM+SFN+MET) that was administered with BLM and orally administered with 50 μg/kg of SFN and 25 mg/kg of Met. […] The fixed lung tissues were stained by the H&E staining method and the Masson-trichrome staining method, and the stained lung tissues were evaluated by Image J assay to assess and compare lung damage and lung fibrosis (FIGS. 1a to 1c).

[2] = test system: TGF-β1 (transforming growth factor β1); experiment: Western blot analysis for TGF-β1 in lung tissue and serum samples; conditions: BLM-treated C57BL/6 mice; oral, every day; SFN 50 μg/kg, Met 25 mg/kg, singly or together; lung tissue and serum at 28 days; vs BLM alone
Procedure: (§1) In detail, C57BL/6 mice were administered with combination of BLM, SFN and metformin (Met) which is one of BG agents, and control groups and experimental groups were prepared: a control group that was orally administered with sterile physiological saline (SA) and orally administered with distilled water; an experimental group (BLM) that was administered with BLM and orally administered with distilled water; an experimental group (BLM+SFN) that was administered with BLM and orally administered with 50 μg/kg of SFN; an experimental group (BLM+MET) that was administered with BLM and orally administered with 25 mg/hg of Met; and an experimental group (BLM+SFN+MET) that was administered with BLM and orally administered with 50 μg/kg of SFN and 25 mg/kg of Met. At this time, C57BL/6 mice were administered with 2.5 unit of BLM by intratracheal injection under anesthesia at the experiment initiation day and 14 days, and the mice were administered with SFN and Met every day during the experimental period from the next day after the first administration of BLM, and the mice of the control group and experimental groups were raised for 28 days after the experiment initiation day.
The animal models of the control group and the experimental groups that were prepared in Example 1 and raised for 28 days were sacrificed. The lung tissues and serum samples were obtained from these animal models. […]

fibronectin = experiment: Western blot analysis for fibronectin in lung tissue and serum samples; conditions: BLM-treated C57BL/6 mice; oral, every day; SFN 50 μg/kg, Met 25 mg/kg, singly or together; lung tissue and serum at 28 days; vs BLM alone
Procedure: as §1
(§2) The lung tissues and serum samples were obtained from these animal models. […]

[3] = test system: AGE (advanced glycation end products); experiment: Western blot analysis, Ponceau staining and ELISA for AGE in lung tissue and serum samples; conditions: BLM-treated C57BL/6 mice; oral, every day; SFN 50 μg/kg, Met 25 mg/kg, singly or together; lung tissue and serum at 28 days; vs BLM alone
Procedure: as §1, §2

| Compound | level of fibrous tissue (damaged fibrous regions, H&E and Masson-trichrome staining) [1] | TGF-β1 levels (Western blot) [2] | fibronectin levels (Western blot) (fibronectin) | AGE level (Western blot, ELISA) [3] |
| --- | --- | --- | --- | --- |
| CN(C)C(=N)N=C(N)N [Met, metformin] | slightly reduced | reduced TGF-β1 levels | reduced fibronectin levels | slightly reduced AGE level |
| C[S+]([O-])CCCCN=C=S (centres unmarked) [SFN, sulforaphane] | statistically significant reduction | reduced TGF-β1 levels | reduced fibronectin levels | reduced |

Reference: patent US9943497B2, “Pharmaceutical composition for preventing or treating pulmonary fibrosis” (GACHON UNIVERSITY OF INDUSTRY-ACADEMIC COOPERATION …, priority 2013, dated 2018)
